Data published in patent US5840721A, “Imidazole derivatives as MDR modulators” (Ontogen Corporation, priority 1997, dated 1998).
Read-outs that look alike come from different tables or passages of the source.

System: CEM/VLB1000 cell line
Test: Cytotoxicity potentiation: enhancement of vinblastine cytotoxicity in MDR cell line (alamar blue)
Format: cell-based, human
Settings: midpoint of minimum and maximum cytotoxicity induced by 3-5 μg/mL vinblastine and compound, 48 hours incubation, alamar blue 24 hours, read-out: Cytotocicity Potentiation (EC50)
Protocol: Multidrug-resistant cell lines are easily obtainable for in vitro determination of drug sensitization by compounds of the present invention. In vitro potentiation of antineoplastic cytotoxicity by the imidazole derivatives of the present invention was measured in both CEM/VLB1000 and SK/VLB1000 cell lines. The multidrug resistant cell lines were obtained from Dr. Victor Ling, Ontario Cancer Institute, Toronto, Canada. The CEM/VLB 1000 cell line was maintained as a suspension in minimum essential medium supplemented with 10% fetal bovine serum in a humidied atmosphere of 95% air and 5% CO2 while the SK/VLB 1000 cell line was maintained as adherent cells using the identical medium conditions as the CEM cells. The CEM/VLB 1000 cells were seeded at a density of 5×10^4 cells/well in a 96 well microtiter plate while the SK/VLB 1000 cell line was seeded at a density of 2,500 cells/well after trypsinization.

SMILES | EC50 (Homo sapiens) | EC50
CCCCOC/C=C/c1ccc(-c2nc(-c3ccc(N(C)C)cc3)c(-c3ccc(N(C)C)cc3)[nH]2)cc1 [Example 85, 2-[4-(3-butoxy-trans-1-propen-1-yl)phenyl]-4,5-bis (4-N,N-dimethylaminophenyl) imidazole] | 110 nM | –
CCOC/C=C/c1ccc(-c2nc(-c3ccc(NC(C)C)cc3)c(-c3ccc(F)cc3)[nH]2)cc1 [Example 121, 2-[4-(3-ethoxy-trans-1-propen-1-yl)phenyl]-4-(4-fluorophenyl)-5-(4-N-isopropylaminophenyl) imidazole] | 120 nM | –
CN(C)c1ccc(-c2nc(-c3ccc(N4CCOCC4)cc3)[nH]c2-c2ccc(N(C)C)cc2)cc1 [Example 97, 2-(4-N-morpholinophenyl)-4,5-bis (4-N,N-dimnethylaminophenyl) imidazole] | 190 nM | –
COC(=O)/C=C/c1ccc(-c2nc(-c3ccc(N4CCOCC4)cc3)c(-c3ccc(N4CCOCC4)cc3)[nH]2)cc1 [Example 71, 2-(trans-2-methoxycarbonyl-ethenylphenyl)-4,5-bis (4-N-morpholinophenyl) imidazole] | 370 nM | –
CCOC/C=C/c1ccc(-c2nc(-c3ccc(N4CCOCC4)cc3)c(-c3ccc(N4CCOCC4)cc3)[nH]2)cc1 [Example 92, 2-[4-(3-ethoxy-trans-1-propen-1-yl)phenyl]-4,5-bis (4-N-morpholinophenyl) imidazole] | 220 nM | –
COCCOC/C=C/c1ccc(-c2nc(-c3ccc(N(C)C)cc3)c(-c3ccc(N(C)C)cc3)[nH]2)cc1 [Example 84, 2-{4-[3-(2-methoxy-ethoxy)-trans-1-propen-1-yl]phenyl}-4,5-bis (4-N,N-dimethylaminophenyl) imidazole] | 90 nM | –
CCOC/C=C/c1ccc(-c2nc(-c3ccc(NC(C)C)cc3)c[nH]2)cc1 [Example 123, 2-[4-(3-ethoxy-trans-1-propen-1-yl)phenyl]-4-(4-N-isopropylphenyl) imidazole] | 340 nM | –
CN(C)c1ccc(-c2nc(-c3ccc(/C=C/S(C)(=O)=O)cc3)[nH]c2-c2ccc(N(C)C)cc2)cc1 [Example 96, 2-[4-trans-(2-methanesulfonyl-ethenyl)-phenyl]-4,5-bis (4-N,N-dimethylaminophenyl) imidazole] | 730 nM | –
CCOC/C=C/c1ccc(-c2nc(-c3ccc(N(CC)CC)cc3)c(-c3ccc(NC)cc3)[nH]2)cc1 [Example 87, 2-[4-(3-ethoxy-trans-1-propen-1-yl)phenyl]-4-(4-N,N-diethylaminophenyl)5-(4-N-methylaminophenyl) imidazole] | 60 nM | –
CN(C)c1ccc(-c2nc(-c3ccc(/C=C/c4nc5ccccc5o4)cc3)[nH]c2-c2ccc(N(C)C)cc2)cc1 [Example 56, 2-[trans-2-(2-benzoxazolyl)ethenylphenyl]-4,5-bis (4-N,N-dimethylaminophenyl) imidazole] | 550 nM | –
CN(C)c1ccc(-c2nc(-c3ccc(/C=C/CO)cc3)n(C)c2-c2ccc(N(C)C)cc2)cc1 [Example 114, 1-methyl-2-[4-(3-hydroxy-trans-1-propen-1-yl)phenyl]-4,5-bis (4-N,N-dimethylaminophenyl) imidazole] | 630 nM | –
CCOC/C=C/c1ccc(-c2nc(-c3ccc(OC(C)C)cc3)c(-c3ccc(OC(C)C)cc3)[nH]2)cc1 [Example 104, 2-[4-(3-ethoxy-trans-1-propen-1-yl)phenyl]-4,5-bis (4diisopropyloxyphenyl) imidazole] | 250 nM | –
CC(=O)/C=C/c1ccc(-c2nc(-c3ccc(N(C)C)cc3)c(-c3ccc(N(C)C)cc3)[nH]2)cc1 [Example 116, 2-[4-(3-methylcarbonyl-trans-1-propen-1-yl)phenyl]-4,5-bis (4-N,N-dimethylaminophenyl) imidazole] | 230 nM | –
CN(C)c1ccc(-c2nc(-c3ccc(/C=C/C#N)cc3)[nH]c2-c2ccc(N(C)C)cc2)cc1 [Example 64, 2-[trans-2-(2-cyano)ethenylphenyl]-4,5-(4-N,N-dimethylaminophenyl) imidazole] | 550 nM | –
CNc1ccc(-c2nc(-c3ccc(/C=C/C(=O)OC)cc3)[nH]c2-c2ccc(N3CCOCC3)cc2)cc1 [Example 73, 2-(trans-2-methoxycarbonyl-ethenylphenyl)-4-(4-N-methylaminophenyl)5-(4-N-morpholinophenyl) imidazole] | 340 nM | –
CNc1ccc(-c2nc(-c3ccc(/C=C/C(=O)OC)cc3)[nH]c2-c2ccc(N3CCCC3)cc2)cc1 [Example 67, 2-(trans-2-methoxycarbonyl-ethenylphenyl)-4-(4-N-methylaminophenyl)5-(4-pyrrolidinophenyl) imidazole] | 98 nM | –
CN(C)c1ccc(-c2nc(-c3ccc(/C=C/COC(=O)C(C)(C)C)cc3)[nH]c2-c2ccc(N(C)C)cc2)cc1 [Example 115, 2-[4-(3-pivalate-trans-1-propen-1-yl)phenyl]-4,5-bis (4-N,N-dimethylaminophenyl) imidazole] | 480 nM | –

SMILES | EC50 (Homo sapiens) | EC50
CCOC/C=C/c1ccc(-c2nc(-c3ccc(NC(C)C)cc3)c(-c3ccc(NC(C)C)cc3)[nH]2)cc1 [Example 119, 2-[4-(3-ethoxy-trans-1-propen-1-yl)phenyl]-4,5-bis-(4-N-isopropylaminophenyl) imidazole] | 67 nM | –
CCOC/C=C/c1ccc(-c2nc(-c3ccc(N4CCOCC4)cc3)c(C)[nH]2)cc1 [Example 127, 2-[4-(3-ethoxy-trans-1-propen-1-yl)phenyl]-4-(4-N-morpholinophenyl)-5methyl-imidazole] | 330 nM | –
CCOC/C=C/c1ccc(-c2nc(-c3ccc(N(C)C)cc3)c(-c3ccc(NC)cc3)[nH]2)cc1 [Example 76, 2-[4-(3-ethoxy-trans-1-propen-1-yl)phenyl]-4-(4-N-dimethylaminophenyl)-5-(4-N-methylaminophenyl) imnidazole] | 110 nM | –
CNc1ccc(-c2[nH]c(-c3ccc(/C=C/COc4ccccc4)cc3)nc2-c2ccc(N(C)C)cc2)cc1 [Example 78, 2-[4-(3-phenoxy-trans-1-propen-1-yl)phenyl]-4-(4-N-dimethylaminophenyl)-5-(4-N-methylaminopheny) imidazole] | – | 450 nM
COC(=O)/C=C/c1ccc(-c2nc(-c3ccc(N(C)C)cc3)c(-c3ccc(N4CCOCC4)cc3)[nH]2)cc1 [Example 72, 2-(trans-2-methoxycarbonyl-ethenylphenyl)-4-(4-N-dimethylaminophenyl)-5-(4-N-morpholinophenyl) imidazole] | 320 nM | –
CCOC/C=C/c1ccc(-c2nc3cc(OC)ccc3[nH]2)cc1 [Example 118] | 1000 nM | –
CCOC/C=C/c1ccc(-c2nc(-c3ccc(N(C)C)cc3)c(-c3ccc(N4CCOCC4)cc3)[nH]2)cc1 [Example 93, 2-[4-(3-ethoxy-trans-1-propen-1-yl)phenyl]-4-(4-N-dimethylaminophenyl)-5-(4-N-morpholinophenyl) imidazole] | 150 nM | –
CCOC/C=C/c1ccc(-c2nc(-c3ccc(NC)cc3)c(-c3ccc(N4CCCC4)cc3)[nH]2)cc1 [Example 91, 2-[4-(3-ethoxy-trans-1-propen-1-yl)phenyl]-4-(4-N-methylaminophenyl)-5(4-pyrrolidinophenyl) imidazole] | 110 nM | –
CCN(CC)Cc1ccc(-c2nc(-c3ccc(/C=C/C(=O)OC)cc3)[nH]c2-c2ccc(CN(CC)CC)cc2)cc1 [Example 100, 2-[4-trans-(2-methoxycarbonyl-ethenyl)phenyl]-4,5-bis (4-N,N-diethylaminomethylphenyl) imidazole] | 3400 nM | –
CN(C)c1ccc(-c2nc(-c3ccc(/C=C/c4nc5ccccc5s4)cc3)[nH]c2-c2ccc(N(C)C)cc2)cc1 [Example 62, 2-[trans-2-(2-benzthiazolyl)ethenylphenyl]-4,5-bis (4-N,N-dimethylaminophenyl) imidazole] | 1030 nM | –
CCOC/C=C/c1ccc(-c2nc(-c3ccc(NC(C)C)cc3)c(-c3ccc(NC)cc3)[nH]2)cc1 [Example 95, 2-[4-(3-ethoxy-trans-1-propen-1-yl)phenyl]-4-(4-N-methylaminophenyl)-5-(4-N-isopropylaminophenyl) imidazole] | 50 nM | –
COC/C=C/c1ccc(-c2nc(-c3ccc(N4CCCC4)cc3)c(-c3ccc(N4CCCC4)cc3)[nH]2)cc1 [Example 88, 2-[4-(3-methoxy-trans-1-propen-1-yl)phenyl]-4,5-bis (4-pyrrolidinophenyl) imidazole] | 260 nM | –
CNc1ccc(-c2[nH]c(-c3ccc(/C=C/c4nc5ccccc5s4)cc3)nc2-c2ccc(N(C)C)cc2)cc1 [Example 63, 2-[trans-2-(2-benzthiazolyl)ethenylphenyl]-4-(4-N-dimethylaminophenyl)-5-(4-N-methylaminophenyl) imidazole] | 320 nM | –
CCOC/C=C/c1ccc(-c2nc(-c3ccc(N4CCN(CC)CC4)cc3)c[nH]2)cc1 [Example 126, 2-[4-(3-ethoxy-trans-1-propen-1-yl)phenyl]-4-[4-N-(N'-ethyl)piperizanophenyl) imidazole] | 710 nM | –
C=CCN(CC=C)c1ccc(-c2nc(-c3ccc(/C=C/C(=O)OC)cc3)[nH]c2-c2ccc(F)cc2)cc1 [Example 66, 2-(trans-2-methoxycarbonyl-ethenylphenyl)-4-(4-N,N-diallylaminophenyl)5-(4-fluoro-phenyl) imidazole] | 850 nM | –
CCOC/C=C/c1ccc(-c2nc(-c3ccc(N(CC)CC)cc3)c(-c3ccc(N(CC)CC)cc3)[nH]2)cc1 [Example 86, 2-[4-(3-ethoxy-trans-1-propen-1-yl)phenyl]-4,5-bis (4-N,N-diethylaminophenyl) imidazole] | 260 nM | –
